Biological target: Mucolipin-3 (Homo sapiens) (UniProt Q8TDD5)
Test: activators of mucolipin-3 and mucolipin-2 – cell-based, patch clamp, Fura-2 profiling panel (AID 2116)
Conditions: HEK293 cells expressing TRPML3-YFP, TRPML3 Dose Response

Mucolipin-3 (Homo sapiens), sequence (Q8TDD5 whole entry, looked up): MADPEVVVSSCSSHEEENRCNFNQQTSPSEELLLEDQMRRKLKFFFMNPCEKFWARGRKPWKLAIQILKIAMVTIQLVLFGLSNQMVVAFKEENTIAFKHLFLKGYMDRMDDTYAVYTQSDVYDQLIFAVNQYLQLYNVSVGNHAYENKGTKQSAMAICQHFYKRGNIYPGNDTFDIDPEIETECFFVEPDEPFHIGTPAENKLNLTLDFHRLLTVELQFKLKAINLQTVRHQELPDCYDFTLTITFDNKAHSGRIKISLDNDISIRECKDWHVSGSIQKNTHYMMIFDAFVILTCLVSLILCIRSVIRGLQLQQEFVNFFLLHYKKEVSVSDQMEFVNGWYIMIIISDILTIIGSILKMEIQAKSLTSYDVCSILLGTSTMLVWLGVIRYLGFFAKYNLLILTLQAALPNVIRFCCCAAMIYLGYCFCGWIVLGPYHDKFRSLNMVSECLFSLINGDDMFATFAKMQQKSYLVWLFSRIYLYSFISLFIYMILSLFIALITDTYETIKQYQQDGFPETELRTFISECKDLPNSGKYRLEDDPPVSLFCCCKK

EC50	SMILES
1090 nM	O=S(=O)(Nc1ccccc1N1CCOCC1)c1ccc(Cl)s1
450 nM	O=S(=O)(NC1CCCCC1N1CCOCC1)c1ccc(Cl)cc1 (configuration not stated)
